Test results from ChEMBL document CHEMBL1201862, “PubChem BioAssay data set” (2004).
Several values for one entry are separate records, joined by “and”; a condition that tells them apart may be missing. Equal entries are not always repeated.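 1) Cells in 96-well plates. 2) Compound, 48 h, 5 concentrations. 3) Linear interpolation between surrounding doses. 4) Unreached endpoint = highest concentration. Here, GI50 denotes the concentration required for 50% inhibition of growth.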 Activity calls are given as the source filed them. No stated cut-off is given here; in the data, active = GI50 up to about 1.1 µM and inactive = higher.

How the values were obtained:
Assay in all cases: DTP human tumour cell line panel, 48 h
NCI-H226 = test system: NCI-H226
RXF 393 = test system: RXF 393
Hs-578T = test system: Hs-578T
OVCAR-5 = test system: OVCAR-5
SN12C = test system: SN12C
DU-145 = test system: DU-145
MOLT-4 = test system: MOLT-4
UACC-257 = test system: UACC-257
OVCAR-4 = test system: OVCAR-4
K562 = test system: K562
SF-539 = test system: SF-539
KM12 = test system: KM12
TK-10 = test system: TK-10
PC-3 = test system: PC-3
NCI-H23 = test system: NCI-H23
OVCAR-3 = test system: OVCAR-3
SK-MEL-2 = test system: SK-MEL-2
MCF7 = test system: MCF7
SW-620 = test system: SW-620
CAKI-1 = test system: CAKI-1
IGROV-1 = test system: IGROV-1
EKVX = test system: EKVX
M14 = test system: M14
HCT-15 = test system: HCT-15
T47D = test system: T47D
BT-549 = test system: BT-549
OVCAR-8 = test system: OVCAR-8
CCRF-CEM = test system: CCRF-CEM
ACHN = test system: ACHN
COLO 205 = test system: COLO 205
SK-OV-3 = test system: SK-OV-3
RPMI-8226 = test system: RPMI-8226
786-0 = test system: 786-0
SNB-75 = test system: SNB-75
SNB-19 = test system: SNB-19
NCI/ADR-RES = test system: NCI/ADR-RES
NCI-H522 = test system: NCI-H522
HOP-92 = test system: HOP-92
HT-29 = test system: HT-29
SF-295 = test system: SF-295
Malme-3M = test system: Malme-3M
HCT-116 = test system: HCT-116
LOX IMVI = test system: LOX IMVI
HCC 2998 = test system: HCC 2998
UO-31 = test system: UO-31
SF-268 = test system: SF-268
A549 = test system: A549
NCI-H460 = test system: NCI-H460
HL-60 = test system: HL-60
SK-MEL-5 = test system: SK-MEL-5
A498 = test system: A498
SK-MEL-28 = test system: SK-MEL-28
SR = test system: SR
U-251 = test system: U-251
HOP-62 = test system: HOP-62
MDA-MB-435 = test system: MDA-MB-435
MDA-N = test system: MDA-N
MDA-MB-231 = test system: MDA-MB-231
UACC-62 = test system: UACC-62

With `CN(C)NC1=NS(=O)(=O)c2cc3c(cc2S1)N(N(C)C)C(=O)c1cc2c(cc1N(N(C)C)C3=O)SC(NN(C)C)=NS2(=O)=O` the GI50 (NCI-H226) was > 10000 nM (inactive), the GI50 (RXF 393) was > 10000 nM (inactive) and the GI50 (Hs-578T) was > 10000 nM (inactive). The GI50 (OVCAR-5) was > 10000 nM (inactive), the GI50 (SN12C) was > 10 µM (inactive) and the GI50 (DU-145) was > 10000 nM (inactive). For the same compound, the GI50 (MOLT-4) was > 10 µM (inactive), the GI50 (UACC-257) was > 10000 nM (inactive) and the GI50 (OVCAR-4) was > 10000 nM (inactive). For the same compound, the GI50 (K562) was > 10 µM (inactive), the GI50 (SF-539) was > 10000 nM (inactive) and the GI50 (KM12) was > 10 µM (inactive). For the same compound, the GI50 (TK-10) was > 10000 nM (inactive), the GI50 (PC-3) was > 10000 nM (inactive) and the GI50 (NCI-H23) was > 10000 nM (inactive). The GI50 (OVCAR-3) was > 10000 nM (inactive), the GI50 (SK-MEL-2) was > 10000 nM (inactive) and the GI50 (MCF7) was > 10000 nM (inactive). The GI50 (SW-620) was > 10 µM (inactive), the GI50 (CAKI-1) was > 10000 nM (inactive) and the GI50 (IGROV-1) was > 10 µM (inactive). The GI50 (EKVX) was > 10000 nM (inactive), the GI50 (M14) was > 10000 nM (inactive) and the GI50 (HCT-15) was over 10000 nM. The GI50 (T47D) was > 10000 nM (inactive), the GI50 (BT-549) was > 10 µM (inactive) and the GI50 (OVCAR-8) was > 10 µM (inactive). For the same compound, the GI50 (CCRF-CEM) was > 10 µM (inactive), the GI50 (ACHN) was > 10000 nM (inactive) and the GI50 (COLO 205) was > 10000 nM (inactive). For the same compound, the GI50 (SK-OV-3) was > 10000 nM (inactive), the GI50 (RPMI-8226) was > 10 µM (inactive) and the GI50 (786-0) was > 10 µM (inactive). The GI50 (SNB-75) was > 10 µM (inactive), the GI50 (SNB-19) was > 10000 nM (inactive) and the GI50 (NCI/ADR-RES) was > 10000 nM (inactive). For the same compound, the GI50 (NCI-H522) was > 10 µM (inactive), the GI50 (HOP-92) was > 10000 nM (inactive) and the GI50 (HT-29) was > 10 µM (inactive). For the same compound, the GI50 (SF-295) was > 10 µM (inactive), the GI50 (Malme-3M) was > 10000 nM (inactive) and the GI50 (HCT-116) was > 10 µM (inactive). The GI50 (LOX IMVI) was > 10 µM (inactive), the GI50 (HCC 2998) was > 10000 nM (inactive) and the GI50 (UO-31) was > 10000 nM (inactive). The GI50 (SF-268) was > 10 µM (inactive), the GI50 (A549) was > 10000 nM (inactive) and the GI50 (NCI-H460) was > 10 µM (inactive). The GI50 (HL-60) was > 10000 nM (inactive), the GI50 (SK-MEL-5) was > 10 µM (inactive) and the GI50 (A498) was > 10000 nM (inactive). For the same compound, the GI50 (SK-MEL-28) was > 10000 nM (inactive), the GI50 (SR) was > 10000 nM (inactive) and the GI50 (U-251) was > 10000 nM (inactive). The GI50 (HOP-62) was > 10000 nM (inactive).
`CC(=O)OCC1OC(OC(C)(C)CC/C=C(\C)[C@@H]2C/C=C(\C)CC/C=C(\C)CC2)C(O)C(O)C1OC(C)=O` (some centres not stated) was tested, and the GI50 (RXF 393) was > 100000 nM (inactive), the GI50 (Hs-578T) was 300 nM (active) and the GI50 (SN12C) was 32 µM (inactive) and 20 µM (inactive). The GI50 (MOLT-4) was 17 µM (inactive) and > 10 µM (inactive), the GI50 (K562) was 28.7 µM (inactive) and 22.4 µM (inactive) and the GI50 (MDA-MB-435) was 32.8 µM (inactive) and 20.2 µM (inactive). The GI50 (KM12) was 26.7 µM (inactive) and 19 µM (inactive), the GI50 (SW-620) was 26.1 µM (inactive) and 24.2 µM (inactive) and the GI50 (IGROV-1) was 17.5 µM (inactive) and 21.6 µM (inactive). For the same compound, the GI50 (BT-549) was 33.9 µM (inactive) and 19.7 µM (inactive), the GI50 (OVCAR-8) was 20.6 µM (inactive) and 28.6 µM (inactive) and the GI50 (CCRF-CEM) was 22.5 µM (inactive) and 14 µM (inactive). The GI50 (RPMI-8226) was 25.5 µM (inactive) and 19.7 µM (inactive), the GI50 (786-0) was 39.4 µM (inactive) and 23.6 µM (inactive) and the GI50 (SNB-75) was 17.4 µM (inactive) and 17.1 µM (inactive). For the same compound, the GI50 (NCI-H522) was 18.9 µM (inactive) and 11.3 µM (inactive), the GI50 (HT-29) was 24.5 µM (inactive) and 14.9 µM (inactive) and the GI50 (SF-295) was 22.9 µM (inactive) and 42.3 µM (inactive). The GI50 (HCT-116) was 25 µM (inactive) and 22.9 µM (inactive), the GI50 (MDA-N) was 24.7 µM (inactive) and 19.7 µM (inactive) and the GI50 (LOX IMVI) was 18.5 µM (inactive) and 21.3 µM (inactive). For the same compound, the GI50 (SF-268) was 27 µM (inactive) and 19.8 µM (inactive), the GI50 (NCI-H460) was 17.9 µM (inactive) and 23.2 µM (inactive) and the GI50 (HL-60) was 28500 nM (inactive). The GI50 (SK-MEL-5) was 17.5 µM (inactive) and 30.1 µM (inactive).
With `COC1/C=C/C(C)C(C(C)C(OC)C(C)CCC(=O)C(C)C(C/C=C/N(C)C=O)OC)OC(=O)C=CC2OC2(C)CC(OC)C(OC)C2=CC(=O)O[C@@H](C(C)C(OC)CC(OC)/C=C/C(C)C(O)C1)[C@H]2O` (some centres not stated) the GI50 (NCI-H226) was 6.15 nM (active), the GI50 (RXF 393) was 13.9 nM (active) and the GI50 (Hs-578T) was 4.48 nM (active). The GI50 (MDA-MB-231) was 3.2 nM (active), the GI50 (OVCAR-5) was 10.5 nM (active) and the GI50 (SN12C) was 0.00593 µM (active). For the same compound, the GI50 (DU-145) was 9.38 nM (active), the GI50 (MOLT-4) was 0.00527 µM (active) and the GI50 (UACC-257) was 10.5 nM (active). The GI50 (OVCAR-4) was 20.8 nM (active), the GI50 (K562) was 0.00277 µM (active) and the GI50 (SF-539) was 3.7 nM (active). For the same compound, the GI50 (MDA-MB-435) was 13.7 nM (active), the GI50 (KM12) was 0.00708 µM (active) and the GI50 (TK-10) was 11.9 nM (active). The GI50 (PC-3) was 6.09 nM (active), the GI50 (NCI-H23) was 23.9 nM (active) and the GI50 (OVCAR-3) was 10.8 nM (active). The GI50 (SK-MEL-2) was 17.5 nM (active), the GI50 (MCF7) was 6.27 nM (active) and the GI50 (SW-620) was 0.00379 µM (active). The GI50 (CAKI-1) was 2.67 nM (active), the GI50 (IGROV-1) was 0.00106 µM (active) and the GI50 (EKVX) was 5.62 nM (active). For the same compound, the GI50 (M14) was 3.33 nM (active), the GI50 (HCT-15) was 6.31 nM and the GI50 (BT-549) was 0.0214 µM (active). For the same compound, the GI50 (UACC-62) was 20.1 nM (active), the GI50 (OVCAR-8) was 0.00853 µM (active) and the GI50 (CCRF-CEM) was 0.00935 µM (active). For the same compound, the GI50 (ACHN) was 3.13 nM (active), the GI50 (COLO 205) was 1.6 nM (active) and the GI50 (SK-OV-3) was 20.5 nM (active). For the same compound, the GI50 (RPMI-8226) was 0.00841 µM (active), the GI50 (786-0) was 0.00451 µM (active) and the GI50 (SNB-19) was 12.1 nM (active). The GI50 (NCI/ADR-RES) was 25.4 nM (active), the GI50 (NCI-H522) was 0.00369 µM (active) and the GI50 (HOP-92) was 5.6 nM (active). For the same compound, the GI50 (HT-29) was 0.00364 µM (active), the GI50 (SF-295) was 0.00775 µM (active) and the GI50 (Malme-3M) was 6.73 nM (active). The GI50 (HCT-116) was 0.000528 µM (active), the GI50 (MDA-N) was 4.71 nM (active) and the GI50 (LOX IMVI) was 0.002 µM (active). For the same compound, the GI50 (HCC 2998) was 5.69 nM (active), the GI50 (UO-31) was 3.08 nM (active) and the GI50 (SF-268) was 0.00451 µM (active). For the same compound, the GI50 (A549) was 3.49 nM (active), the GI50 (NCI-H460) was 0.00607 µM (active) and the GI50 (HL-60) was 10.9 nM (active). For the same compound, the GI50 (SK-MEL-5) was 0.0128 µM (active), the GI50 (A498) was 7.85 nM (active) and the GI50 (SK-MEL-28) was 8.69 nM (active). For the same compound, the GI50 (SR) was 12 nM (active), the GI50 (U-251) was 14.6 nM (active) and the GI50 (HOP-62) was 4.97 nM (active).
